Columns and labels:
Assay type in all cases: cell-based
[1] = target: T1, GALR3 single mutant Y^103F (Homo sapiens, UniProt O60755, Y103F); test: SRE-luc luciferase assay, GALR3 Y103F; details: GALR3 Y^103F; SRE-luc in HEK293 Gqi cells, ligand 6 h; mean ± S.E.; SEM
T1 construct: expressed in transfected cells; host or cells: HEK293 cells stably expressing Gqi
T1 sequence (O60755 1-368 Y103F): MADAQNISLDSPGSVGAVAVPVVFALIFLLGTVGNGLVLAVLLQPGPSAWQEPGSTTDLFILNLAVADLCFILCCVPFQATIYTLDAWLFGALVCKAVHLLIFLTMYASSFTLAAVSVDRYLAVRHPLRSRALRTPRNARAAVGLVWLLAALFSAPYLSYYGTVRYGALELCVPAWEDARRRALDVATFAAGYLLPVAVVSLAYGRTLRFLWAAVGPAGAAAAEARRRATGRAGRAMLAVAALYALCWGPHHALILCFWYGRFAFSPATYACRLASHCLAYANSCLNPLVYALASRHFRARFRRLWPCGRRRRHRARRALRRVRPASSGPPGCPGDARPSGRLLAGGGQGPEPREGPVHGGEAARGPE
Text: (§1) For domain swapping between GALR2 and GALR3, individual cDNA fragments of interest were amplified by polymerase chain reaction (PCR) with Pfu polymerase (ELPIS Biotech, Daejeon, Korea) and two specific primers, one corresponding to the 5' or 3' end of the GALR2 or GALR3 cDNA and the other to the region of overlap between the two receptors. The two resulting fragments, one from GALR2 and the other from GALR3, were subjected to a second round of PCR to generate the chimeric cDNAs. To construct single, double-, triple-, pentuple-, hextuple-, and septuple-mutant receptors, amino acids of GALR3 were substituted for the amino acids at the corresponding positions in GALR2 using PCR-based site-directed mutagenesis. All of the chimeric constructs were cloned into the pcDNA3 expression vector at HindⅢ and XbaⅠ sites. The DNA sequences of the chimeras were verified by automatic sequencing. HEK293 cells stably expressing the Gqi construct, which allows induction of Gq-dependent signaling pathways upon activation of a Gi-coupled receptor [14, 30], were maintained in Dulbecco's Modified Eagle's Medium (DMEM) in the presence of 10% fetal bovine serum and 1% penicillin and streptomycin. For all transfections, 200 ng DNA (100 ng receptor and 100 ng SRE-luc) mixed with lipofectamine 2000 was applied to 60–80% confluent cells on a multi-well plate according to the manufacturer's instructions (Invitrogen, Carlsbad, CA). For luciferase assays, HEK293 Gqi cells were seeded on 48-well plates at a density of 2.5 × 10^4 cells/well one day before transfection. […] The luciferase activity in 50 μl cell extract was determined using a luciferase assay system according to the standard protocol for the Synergy 2 Multi-Mode Microplate Reader (BioTek, Winooski, VT, USA). […] The concentrations of agonists that induced half-maximal stimulation (EC50) were calculated using the GraphPad PRISM5 software (GraphPad software, Inc., San Diego, CA). […]

[2] = target: T2, GALR3 single mutant L^184M (Homo sapiens, UniProt O60755, L184M); test: SRE-luc luciferase assay, GALR3 L184M; details: GALR3 L^184M; SRE-luc in HEK293 Gqi cells, ligand 6 h; mean ± S.E.; SEM
T2 construct: expressed in transfected cells; host or cells: HEK293 cells stably expressing Gqi
Text: as §1, with “sequencing.” for “sequencing. HEK293 cells stably expressing the Gqi construct, which allows induction of Gq-dependent signaling pathways upon activation of a Gi-coupled receptor [14, 30], were maintained in Dulbecco's Modified Eagle's Medium (DMEM) in the presence of 10% fetal bovine serum and 1% penicillin and streptomycin. For all transfections, 200 ng DNA (100 ng receptor and 100 ng SRE-luc) mixed with lipofectamine 2000 was applied to 60–80% confluent cells on a multi-well plate according to the manufacturer's instructions (Invitrogen, Carlsbad, CA). For luciferase assays, HEK293 Gqi cells were seeded on 48-well plates at a density of 2.5 × 10^4 cells/well one day before transfection.”

[3] = target: T3, GALR3 single mutant V^186I (Homo sapiens, UniProt O60755, V186I); test: SRE-luc luciferase assay, GALR3 V186I; details: GALR3 V^186I; SRE-luc in HEK293 Gqi cells, ligand 6 h; mean ± S.E.; SEM
T3 construct: expressed in transfected cells; host or cells: HEK293 cells stably expressing Gqi
Text: as §1, with “sequencing.” for “sequencing. HEK293 cells stably expressing the Gqi construct, which allows induction of Gq-dependent signaling pathways upon activation of a Gi-coupled receptor [14, 30], were maintained in Dulbecco's Modified Eagle's Medium (DMEM) in the presence of 10% fetal bovine serum and 1% penicillin and streptomycin. For all transfections, 200 ng DNA (100 ng receptor and 100 ng SRE-luc) mixed with lipofectamine 2000 was applied to 60–80% confluent cells on a multi-well plate according to the manufacturer's instructions (Invitrogen, Carlsbad, CA). For luciferase assays, HEK293 Gqi cells were seeded on 48-well plates at a density of 2.5 × 10^4 cells/well one day before transfection.”

[4] = target: T4, GALR3 single mutant A^187C (Homo sapiens, UniProt O60755, A187C); test: SRE-luc luciferase assay, GALR3 A187C; details: GALR3 A^187C; SRE-luc in HEK293 Gqi cells, ligand 6 h; mean ± S.E.; SEM
T4 construct: expressed in transfected cells; host or cells: HEK293 cells stably expressing Gqi
Text: as §1, with “sequencing.” for “sequencing. HEK293 cells stably expressing the Gqi construct, which allows induction of Gq-dependent signaling pathways upon activation of a Gi-coupled receptor [14, 30], were maintained in Dulbecco's Modified Eagle's Medium (DMEM) in the presence of 10% fetal bovine serum and 1% penicillin and streptomycin. For all transfections, 200 ng DNA (100 ng receptor and 100 ng SRE-luc) mixed with lipofectamine 2000 was applied to 60–80% confluent cells on a multi-well plate according to the manufacturer's instructions (Invitrogen, Carlsbad, CA). For luciferase assays, HEK293 Gqi cells were seeded on 48-well plates at a density of 2.5 × 10^4 cells/well one day before transfection.”

[5] = target: T5, GALR3 single mutant A^190V (Homo sapiens, UniProt O60755, A190V); test: SRE-luc luciferase assay, GALR3 A190V; details: GALR3 A^190V; SRE-luc in HEK293 Gqi cells, ligand 6 h; mean ± S.E.; SEM
T5 construct: expressed in transfected cells; host or cells: HEK293 cells stably expressing Gqi
Text: as §1, with “sequencing.” for “sequencing. HEK293 cells stably expressing the Gqi construct, which allows induction of Gq-dependent signaling pathways upon activation of a Gi-coupled receptor [14, 30], were maintained in Dulbecco's Modified Eagle's Medium (DMEM) in the presence of 10% fetal bovine serum and 1% penicillin and streptomycin. For all transfections, 200 ng DNA (100 ng receptor and 100 ng SRE-luc) mixed with lipofectamine 2000 was applied to 60–80% confluent cells on a multi-well plate according to the manufacturer's instructions (Invitrogen, Carlsbad, CA). For luciferase assays, HEK293 Gqi cells were seeded on 48-well plates at a density of 2.5 × 10^4 cells/well one day before transfection.”

T2 sequence (O60755 whole entry L184M): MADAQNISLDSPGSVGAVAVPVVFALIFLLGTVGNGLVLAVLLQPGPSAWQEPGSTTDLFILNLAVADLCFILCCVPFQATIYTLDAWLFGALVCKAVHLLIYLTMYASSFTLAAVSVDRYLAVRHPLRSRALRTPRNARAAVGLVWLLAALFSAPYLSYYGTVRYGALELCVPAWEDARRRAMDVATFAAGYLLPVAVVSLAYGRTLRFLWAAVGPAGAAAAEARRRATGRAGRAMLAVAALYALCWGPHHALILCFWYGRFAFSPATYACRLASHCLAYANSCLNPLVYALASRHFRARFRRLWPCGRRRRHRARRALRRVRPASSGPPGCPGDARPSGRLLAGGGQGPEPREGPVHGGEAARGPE
T4 sequence (O60755 whole entry A187C): as the sequence (O60755 whole entry L184M) above, with M184L, A187C counted along it
T5 sequence (O60755 whole entry A190V): as the sequence (O60755 whole entry L184M) above, with M184L, A190V counted along it
T3 sequence (O60755 whole entry V186I): as the sequence (O60755 whole entry L184M) above, with M184L, V186I counted along it

- EC50 [1]: 0.0324 ± 0.0105 µM
- EC50 [2]: 0.0468 ± 0.0159 µM
- EC50 [3]: 0.141 ± 0.0458 µM
- EC50 [4]: 0.115 ± 0.0277 µM
- EC50 [5]: 0.0776 ± 0.0187 µM
SMILES: CSCC[C@H](NC(=O)[C@H](C)NC(=O)[C@H](CCC(N)=O)NC(=O)[C@@H]1CCCN1C(=O)[C@@H](NC(=O)[C@H](Cc1c[nH]c2ccccc12)NC(=O)[C@@H](N)CC(N)=O)[C@@H](C)O)C(=O)N[C@@H](CC(C)C)C(=O)N[C@@H](Cc1ccc(O)cc1)C(=O)N[C@@H](CC(C)C)C(=O)N[C@@H](CCCCN)C(=O)NCC(=O)N[C@@H](C)C(=O)N[C@@H](CCC(N)=O)C(N)=O [SPX, reference compound]

Reference: article PMC7108740, “Exploring the molecular structures that confer ligand selectivity for galanin type II and III receptors” (PLoS ONE, 2020)
